Experimental data reported in publication PMC8037182, “Solvothermal Synthesis of Multiple Dihydropyrimidinones at a Time as Inhibitors of Eg5” (Molecules, 2021).

Experiments:
Hela cell line = test: Cytotoxicity MTS assay, Hela cell line; assay type: cell-based; conditions: for OD490 value, Mean / OD490 value, Well 1 / OD490 value, Well 2 / OD490 value, Well 3: Hela cell line, MTS;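 as to OD490 value, Mean: blank control wells received 0.025% DMSO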;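 as to OD490 value, Well 1: blank control wells received 0.025% DMSO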;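 as to OD490 value, Well 2: blank control wells received 0.025% DMSO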;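 as to OD490 value, Well 3: blank control wells received 0.025% DMSO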
Summary of the method: (§1)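 Growth inhibition is measured by MTS conversion, read as absorbance at 490 nm after 2 h at 37 °C. Compounds act on cells seeded at 1000/well for 24 h across 0.5–100 µM final. Data derive from three independent duplicate experiments.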

T24 cell line = test: Cytotoxicity MTS assay, T24 cell line; assay type: cell-based; conditions: for OD490 Mean / OD490 Well 1 / OD490 Well 2 / OD490 Well 3: T24 cell line, first assay;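 as to OD490 Mean: blank control wells received 0.025% DMSO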;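 as to OD490 Well 1: blank control wells received 0.025% DMSO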;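 as to OD490 Well 2: blank control wells received 0.025% DMSO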;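 as to OD490 Well 3: blank control wells received 0.025% DMSO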
Summary of the method: as §1

Q: Which results are given for `CCOC(=O)c1[nH]c(C2NC(=O)NC(C)=C2C(=O)Nc2ccc(Cl)cc2)c(C(=O)OCC)c1C` (centres unmarked) [D7]?
A: OD490 value, Mean (Hela cell line; 0.5μM, first assay): 2.5908; OD490 value, Well 1 (Hela cell line; 0.5μM, first assay): 2.5621; OD490 value, Well 2 (Hela cell line; 0.5μM, first assay): 2.6393; OD490 value, Well 3 (Hela cell line; 0.5μM, first assay): 2.5711; OD490 value, Mean (Hela cell line; 0.5μM, second assay): 2.6768; OD490 value, Well 1 (Hela cell line; 0.5μM, second assay): 2.5588; OD490 value, Well 2 (Hela cell line; 0.5μM, second assay): 2.6974; OD490 value, Well 3 (Hela cell line; 0.5μM, second assay): 2.7741; OD490 value, Mean (Hela cell line; 0.5μM, third assay): 2.6551; OD490 value, Well 1 (Hela cell line; 0.5μM, third assay): 2.6545; OD490 value, Well 2 (Hela cell line; 0.5μM, third assay): 2.6358; OD490 value, Well 3 (Hela cell line; 0.5μM, third assay): 2.6749; OD490 value, Mean (Hela cell line; 1μM, first assay): 2.4582; OD490 value, Well 1 (Hela cell line; 1μM, first assay): 2.4152; OD490 value, Well 2 (Hela cell line; 1μM, first assay): 2.4632; OD490 value, Well 3 (Hela cell line; 1μM, first assay): 2.4962; OD490 value, Mean (Hela cell line; 1μM, second assay): 2.6058; OD490 value, Well 1 (Hela cell line; 1μM, second assay): 2.8624; OD490 value, Well 2 (Hela cell line; 1μM, second assay): 2.6541; OD490 value, Well 3 (Hela cell line; 1μM, second assay): 2.3010; OD490 value, Mean (Hela cell line; 1μM, third assay): 2.6692; OD490 value, Well 1 (Hela cell line; 1μM, third assay): 2.6686; OD490 value, Well 2 (Hela cell line; 1μM, third assay): 2.5980; OD490 value, Well 3 (Hela cell line; 1μM, third assay): 2.7410; OD490 value, Mean (Hela cell line; 10μM, first assay): 2.5790; OD490 value, Well 1 (Hela cell line; 10μM, first assay): 2.7201; OD490 value, Well 2 (Hela cell line; 10μM, first assay): 2.4926; OD490 value, Well 3 (Hela cell line; 10μM, first assay): 2.5244; OD490 value, Mean (Hela cell line; 10μM, second assay): 2.5914; OD490 value, Well 1 (Hela cell line; 10μM, second assay): 2.3698; OD490 value, Well 2 (Hela cell line; 10μM, second assay): 2.8523; OD490 value, Well 3 (Hela cell line; 10μM, second assay): 2.5521; OD490 value, Mean (Hela cell line; 10μM, third assay): 2.6067; OD490 value, Well 1 (Hela cell line; 10μM, third assay): 2.5657; OD490 value, Well 2 (Hela cell line; 10μM, third assay): 2.6845; OD490 value, Well 3 (Hela cell line; 10μM, third assay): 2.5698; OD490 value, Mean (Hela cell line; 25μM, first assay): 2.6458; OD490 value, Well 1 (Hela cell line; 25μM, first assay): 2.7056; OD490 value, Well 2 (Hela cell line; 25μM, first assay): 2.6228; OD490 value, Well 3 (Hela cell line; 25μM, first assay): 2.6091; OD490 value, Mean (Hela cell line; 25μM, second assay): 2.6325; OD490 value, Well 1 (Hela cell line; 25μM, second assay): 2.5901; OD490 value, Well 2 (Hela cell line; 25μM, second assay): 2.6301; OD490 value, Well 3 (Hela cell line; 25μM, second assay): 2.6774; OD490 value, Mean (Hela cell line; 25μM, third assay): 2.6849; OD490 value, Well 1 (Hela cell line; 25μM, third assay): 2.6987; OD490 value, Well 2 (Hela cell line; 25μM, third assay): 2.6457; OD490 value, Well 3 (Hela cell line; 25μM, third assay): 2.7102; OD490 value, Mean (Hela cell line; 50μM, first assay): 2.4563; OD490 value, Well 1 (Hela cell line; 50μM, first assay): 2.5239; OD490 value, Well 2 (Hela cell line; 50μM, first assay): 2.4847; OD490 value, Well 3 (Hela cell line; 50μM, first assay): 2.3602; OD490 value, Mean (Hela cell line; 50μM, second assay): 2.2166; OD490 value, Well 1 (Hela cell line; 50μM, second assay): 2.3365; OD490 value, Well 2 (Hela cell line; 50μM, second assay): 2.0124; OD490 value, Well 3 (Hela cell line; 50μM, second assay): 2.3010; OD490 value, Mean (Hela cell line; 50μM, third assay): 2.4441; OD490 value, Well 1 (Hela cell line; 50μM, third assay): 2.4565; OD490 value, Well 2 (Hela cell line; 50μM, third assay): 2.6544; OD490 value, Well 3 (Hela cell line; 50μM, third assay): 2.2214; OD490 value, Mean (Hela cell line; 100μM, first assay): 1.9660; OD490 value, Well 1 (Hela cell line; 100μM, first assay): 1.8876; OD490 value, Well 2 (Hela cell line; 100μM, first assay): 1.9083; OD490 value, Well 3 (Hela cell line; 100μM, first assay): 2.1021; OD490 value, Mean (Hela cell line; 100μM, second assay): 1.8447; OD490 value, Well 1 (Hela cell line; 100μM, second assay): 1.6754; OD490 value, Well 2 (Hela cell line; 100μM, second assay): 1.8601; OD490 value, Well 3 (Hela cell line; 100μM, second assay): 1.9987; OD490 value, Mean (Hela cell line; 100μM, third assay): 1.9092; OD490 value, Well 1 (Hela cell line; 100μM, third assay): 1.9698; OD490 value, Well 2 (Hela cell line; 100μM, third assay): 1.9033; OD490 value, Well 3 (Hela cell line; 100μM, third assay): 1.8546; IC50 (Hela cell line; MTS assay, 24 h exposure): > 150 µM; IC50 (T24 cell line; MTS assay, 24 h exposure): > 150 µM; OD490 Mean (T24 cell line; 0.5μM): 1.2446; OD490 Well 1 (T24 cell line; 0.5μM): 1.2491; OD490 Well 2 (T24 cell line; 0.5μM): 1.2874; OD490 Well 3 (T24 cell line; 0.5μM): 1.1973; OD490 Mean (T24 cell line; 1μM): 1.5295; OD490 Well 1 (T24 cell line; 1μM): 1.4588; OD490 Well 2 (T24 cell line; 1μM): 1.7975; OD490 Well 3 (T24 cell line; 1μM): 1.3323; OD490 Mean (T24 cell line; 10μM): 1.4981; OD490 Well 1 (T24 cell line; 10μM): 1.4996; OD490 Well 2 (T24 cell line; 10μM): 1.6104; OD490 Well 3 (T24 cell line; 10μM): 1.3842; OD490 Mean (T24 cell line; 25μM): 1.5238; OD490 Well 1 (T24 cell line; 25μM): 1.6186; OD490 Well 2 (T24 cell line; 25μM): 1.5573; OD490 Well 3 (T24 cell line; 25μM): 1.3956; OD490 Mean (T24 cell line; 50μM): 1.3341; OD490 Well 1 (T24 cell line; 50μM): 1.3613; OD490 Well 2 (T24 cell line; 50μM): 1.2657; OD490 Well 3 (T24 cell line; 50μM): 1.3754; OD490 Mean (T24 cell line; 100μM): 1.4451; OD490 Well 1 (T24 cell line; 100μM): 1.4704; OD490 Well 2 (T24 cell line; 100μM): 1.5023; OD490 Well 3 (T24 cell line; 100μM): 1.3625
